≈ marks a conversion by molar mass, not a printed value.
Legend:
P. aeruginosa = assay: microbe, parasite or virus in culture; settings: P. aeruginosa UNT 138-1 spontaneous mutant
In short: (§1)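 MICs were scored by eye after 18-20 h static incubation at 37 °C, with bacteria at 5 × 10^5 CFU mL^−1 in MHB. Peptides were serially diluted 2-fold over 12 points, top 128 or 64 μg mL^−1. CAMHB (CLSI) and 1% agarose-MHB variants were also run, at least six replicates.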

E. coli = assay: microbe, parasite or virus in culture
In short: as §1

CN(C)c1cc(NC(=O)CNC(C)(C)C)c(O)c2c1C[C@H]1C[C@H]3[C@H](N(C)C)C(O)=C(C(N)=O)C(=O)[C@@]3(O)C(O)=C1C2=O [TIG]
MIC, broth microdilution (P. aeruginosa; AA139 selection 4X, plate 1, colony 1, drug-free passage 5): 16, 16 µg/mL | MIC, broth microdilution (P. aeruginosa; AA139 selection 4X, plate 1, colony 2, drug-free passage 1): 16, 16 µg/mL | MIC, broth microdilution (P. aeruginosa; AA139 selection 4X, plate 1, colony 2, drug-free passage 5): 16, 16 µg/mL | MIC, broth microdilution (P. aeruginosa; AA139 selection 4X, plate 1, colony 3, drug-free passage 1): 16, 16 µg/mL | MIC, broth microdilution (P. aeruginosa; AA139 selection 4X, plate 1, colony 3, drug-free passage 5): 16, 16 µg/mL | MIC, broth microdilution (P. aeruginosa; AA139 selection 4X, plate 1, colony 4, drug-free passage 1): 16, 16 µg/mL | MIC, broth microdilution (P. aeruginosa; AA139 selection 4X, plate 1, colony 4, drug-free passage 5): 16, 16 µg/mL | MIC, broth microdilution (P. aeruginosa; AA139 selection 4X, plate 1, colony 5, drug-free passage 1): 16, 16 µg/mL | MIC, broth microdilution (P. aeruginosa; AA139 selection 4X, plate 1, colony 5, drug-free passage 5): 16, 16 µg/mL | MIC, broth microdilution (P. aeruginosa; AA139 selection 4X, plate 1, colony 6, drug-free passage 1): 16, 16 µg/mL | MIC, broth microdilution (P. aeruginosa; AA139 selection 4X, plate 1, colony 6, drug-free passage 5): 16, 16 µg/mL | MIC, broth microdilution (P. aeruginosa; AA139 selection 4X, plate 1, colony 7, drug-free passage 1): 16, 16 µg/mL | MIC, broth microdilution (P. aeruginosa; AA139 selection 4X, plate 1, colony 7, drug-free passage 5): 16, 16 µg/mL | MIC, broth microdilution (P. aeruginosa; AA139 selection 4X, plate 2, colony 1, drug-free passage 1): 16, 16 µg/mL | MIC, broth microdilution (P. aeruginosa; AA139 selection 4X, plate 2, colony 1, drug-free passage 5): 16, 16 µg/mL | MIC, broth microdilution (P. aeruginosa; AA139 selection 4X, plate 2, colony 2, drug-free passage 1): 16, 16 µg/mL | MIC, broth microdilution (P. aeruginosa; AA139 selection 4X, plate 2, colony 2, drug-free passage 5): 16, 16 µg/mL | MIC, broth microdilution (P. aeruginosa; AA139 selection 4X, plate 2, colony 3, drug-free passage 1): 16, 16 µg/mL | MIC, broth microdilution (P. aeruginosa; AA139 selection 4X, plate 2, colony 3, drug-free passage 5): 16, 16 µg/mL | MIC, broth microdilution (P. aeruginosa; AA139 selection 4X, plate 2, colony 4, drug-free passage 1): 16, 16 µg/mL | MIC, broth microdilution (P. aeruginosa; AA139 selection 4X, plate 2, colony 4, drug-free passage 5): 16, 16 µg/mL | MIC, broth microdilution (P. aeruginosa; AA139 selection 4X, plate 2, colony 5, drug-free passage 1): 16, 16 µg/mL | MIC, broth microdilution (P. aeruginosa; AA139 selection 4X, plate 2, colony 5, drug-free passage 5): 16, 16 µg/mL | MIC, broth microdilution (P. aeruginosa; AA139 selection 4X, plate 2, colony 6, drug-free passage 1): 16, 16 µg/mL | MIC, broth microdilution (P. aeruginosa; AA139 selection 4X, plate 2, colony 6, drug-free passage 5): 16, 16 µg/mL | MIC, broth microdilution (P. aeruginosa; AA139 selection 4X, plate 2, colony 7, drug-free passage 1): 8 µg/mL (≈ 13.7 µM) | MIC, broth microdilution (P. aeruginosa; AA139 selection 4X, plate 2, colony 7, drug-free passage 5): 16 µg/mL (≈ 27.3 µM) | MIC, broth microdilution (P. aeruginosa; AA139 selection 8X, plate 1, colony 1, drug-free passage 1): 8 µg/mL (≈ 13.7 µM) | MIC, broth microdilution (P. aeruginosa; AA139 selection 8X, plate 1, colony 1, drug-free passage 5): 16 µg/mL (≈ 27.3 µM) | MIC, broth microdilution (P. aeruginosa; AA139 selection 8X, plate 1, colony 2, drug-free passage 1): 8 µg/mL (≈ 13.7 µM) | MIC, broth microdilution (P. aeruginosa; AA139 selection 8X, plate 1, colony 2, drug-free passage 5): 16 µg/mL (≈ 27.3 µM) | MIC, broth microdilution (P. aeruginosa; AA139 selection 8X, plate 1, colony 3, drug-free passage 1): 8 µg/mL (≈ 13.7 µM) | MIC, broth microdilution (P. aeruginosa; AA139 selection 8X, plate 1, colony 3, drug-free passage 5): 16 µg/mL (≈ 27.3 µM) | MIC, broth microdilution (P. aeruginosa; AA139 selection 8X, plate 1, colony 4, drug-free passage 1): 8 µg/mL (≈ 13.7 µM) | MIC, broth microdilution (P. aeruginosa; AA139 selection 8X, plate 1, colony 4, drug-free passage 5): 16 µg/mL (≈ 27.3 µM) | MIC, broth microdilution (P. aeruginosa; AA139 selection 8X, plate 1, colony 5, drug-free passage 1): 16, 16 µg/mL | MIC, broth microdilution (P. aeruginosa; AA139 selection 8X, plate 1, colony 5, drug-free passage 5): 16, 16 µg/mL | MIC, broth microdilution (P. aeruginosa; AA139 selection 8X, plate 2, colony 1, drug-free passage 1): 16, 16 µg/mL | MIC, broth microdilution (P. aeruginosa; AA139 selection 8X, plate 2, colony 1, drug-free passage 5): 16, 16 µg/mL | MIC, broth microdilution (E. coli; E. coli AUD172 parent strain not exposed to drug): 0.12 mg/L (≈ 0.205 µM) | MIC, broth microdilution (E. coli; E. coli AUD172 spontaneous mutant, AA139 selection 4X, plate 2, colony 2, drug-free passage 1): 0.12 mg/L (≈ 0.205 µM) | MIC, broth microdilution (E. coli; E. coli AUD172 spontaneous mutant, AA139 selection 4X, plate 2, colony 2, drug-free passage 5): 0.5 mg/L (≈ 0.854 µM)

Source: publication PMC7311426, “An amphipathic peptide with antibiotic activity against multidrug-resistant Gram-negative bacteria” (Nature Communications, 2020)
